Assay results from PubChem BioAssay (NCI).
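Assay format: 96-well plates, 48-hour exposure. GI50 = concentration required for 50% inhibition of growth. TGI is the concentration that stops growth completely.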

Tests used:
Test in all cases: NCI tumour cell line growth inhibition, 48 h
CAKI-1 renal = tested on: CAKI-1 renal
U251 CNS = tested on: U251 CNS
ACHN renal = tested on: ACHN renal
A498 renal = tested on: A498 renal
RXF 393 renal = tested on: RXF 393 renal
NCI/ADR-RES ovarian = tested on: NCI/ADR-RES ovarian
HOP-92 NSCLC = tested on: HOP-92 NSCLC
SK-MEL-5 melanoma = tested on: SK-MEL-5 melanoma
SF-539 CNS = tested on: SF-539 CNS
OVCAR-3 ovarian = tested on: OVCAR-3 ovarian
M14 melanoma = tested on: M14 melanoma
KM12 colon = tested on: KM12 colon
CCRF-CEM leukemia = tested on: CCRF-CEM leukemia
HOP-62 NSCLC = tested on: HOP-62 NSCLC
MALME-3M melanoma = tested on: MALME-3M melanoma
SW-620 colon = tested on: SW-620 colon
HCC-2998 colon = tested on: HCC-2998 colon
SNB-75 CNS = tested on: SNB-75 CNS
UACC-62 melanoma = tested on: UACC-62 melanoma
OVCAR-8 ovarian = tested on: OVCAR-8 ovarian
SK-MEL-28 melanoma = tested on: SK-MEL-28 melanoma
NCI-H226 lung = tested on: NCI-H226 lung
T-47D breast = tested on: T-47D breast
SN12C renal = tested on: SN12C renal
UACC-257 melanoma = tested on: UACC-257 melanoma
BT-549 breast = tested on: BT-549 breast
HT29 colon = tested on: HT29 colon
SK-MEL-2 melanoma = tested on: SK-MEL-2 melanoma
OVCAR-4 ovarian = tested on: OVCAR-4 ovarian
HS 578T breast = tested on: HS 578T breast
SNB-19 CNS = tested on: SNB-19 CNS
HCT-15 colon = tested on: HCT-15 colon
MCF7 breast = tested on: MCF7 breast
TK-10 renal = tested on: TK-10 renal
OVCAR-5 ovarian = tested on: OVCAR-5 ovarian
MDA-MB-231 breast = tested on: MDA-MB-231 breast
COLO 205 colon = tested on: COLO 205 colon
SR leukemia = tested on: SR leukemia
LOX IMVI melanoma = tested on: LOX IMVI melanoma
SK-OV-3 ovarian = tested on: SK-OV-3 ovarian
SF-295 CNS = tested on: SF-295 CNS
HL-60(TB) leukemia = tested on: HL-60(TB) leukemia
UO-31 renal = tested on: UO-31 renal
DU-145 prostate = tested on: DU-145 prostate
IGROV1 ovarian = tested on: IGROV1 ovarian
RPMI-8226 leukemia = tested on: RPMI-8226 leukemia
SF-268 CNS = tested on: SF-268 CNS
MOLT-4 leukemia = tested on: MOLT-4 leukemia
A549 NSCLC = tested on: A549 NSCLC
PC-3 prostate = tested on: PC-3 prostate
786-0 renal = tested on: 786-0 renal
MDA-MB-435 = tested on: MDA-MB-435
K-562 leukemia = tested on: K-562 leukemia
NCI-H460 lung = tested on: NCI-H460 lung
NCI-H522 lung = tested on: NCI-H522 lung
NCI-H23 lung = tested on: NCI-H23 lung
HCT-116 colon = tested on: HCT-116 colon

For `C[C@H](O)CNc1cc(-c2[nH]c3cccnc3c2-c2ccc(F)cc2)ccn1`, the GI50 (CAKI-1 renal) was 9.06 µM, the TGI (CAKI-1 renal) was over 25 µM and the GI50 (U251 CNS) was over 18.5 µM. The TGI (U251 CNS) was over 25 µM, the GI50 (ACHN renal) was 4.66 µM and the TGI (ACHN renal) was over 25 µM. The GI50 (A498 renal) was 4.19 µM, the TGI (A498 renal) was over 25 µM and the GI50 (RXF 393 renal) was 14.6 µM. The TGI (RXF 393 renal) was over 25 µM, the GI50 (NCI/ADR-RES ovarian) was over 25 µM and the TGI (NCI/ADR-RES ovarian) was over 25 µM. For the same molecule, the GI50 (HOP-92 NSCLC) was 1.59 µM, the TGI (HOP-92 NSCLC) was over 22.9 µM and the GI50 (SK-MEL-5 melanoma) was 10.3 µM. For the same molecule, the TGI (SK-MEL-5 melanoma) was over 25 µM, the GI50 (SF-539 CNS) was over 25 µM and the TGI (SF-539 CNS) was over 25 µM. It also gave a GI50 (OVCAR-3 ovarian) of 22.2 µM, a TGI (OVCAR-3 ovarian) of over 25 µM and a GI50 (M14 melanoma) of over 25 µM. It also gave a TGI (M14 melanoma) of over 25 µM, a GI50 (KM12 colon) of 22.1 µM and a TGI (KM12 colon) of over 25 µM. The GI50 (CCRF-CEM leukemia) was 20.1 µM, the TGI (CCRF-CEM leukemia) was over 25 µM and the GI50 (HOP-62 NSCLC) was 20.1 µM. The TGI (HOP-62 NSCLC) was over 25 µM, the GI50 (MALME-3M melanoma) was over 14.4 µM and the TGI (MALME-3M melanoma) was over 25 µM. For the same molecule, the GI50 (SW-620 colon) was over 25 µM, the TGI (SW-620 colon) was over 25 µM and the GI50 (HCC-2998 colon) was over 23.3 µM. The TGI (HCC-2998 colon) was over 25 µM, the GI50 (SNB-75 CNS) was 11.8 µM and the TGI (SNB-75 CNS) was over 25 µM. It also gave a GI50 (UACC-62 melanoma) of 12.3 µM, a TGI (UACC-62 melanoma) of over 25 µM and a GI50 (OVCAR-8 ovarian) of over 20.2 µM. For the same molecule, the TGI (OVCAR-8 ovarian) was over 25 µM, the GI50 (SK-MEL-28 melanoma) was over 25 µM and the TGI (SK-MEL-28 melanoma) was over 25 µM. For the same molecule, the GI50 (NCI-H226 lung) was 12.9 µM, the TGI (NCI-H226 lung) was over 25 µM and the GI50 (T-47D breast) was 8.88 µM. For the same molecule, the TGI (T-47D breast) was over 25 µM, the GI50 (SN12C renal) was 11.9 µM and the TGI (SN12C renal) was over 25 µM. For the same molecule, the GI50 (UACC-257 melanoma) was over 25 µM, the TGI (UACC-257 melanoma) was over 25 µM and the GI50 (BT-549 breast) was 17.8 µM. The TGI (BT-549 breast) was over 25 µM, the GI50 (HT29 colon) was 10.1 µM and the TGI (HT29 colon) was over 25 µM. It also gave a GI50 (SK-MEL-2 melanoma) of over 25 µM, a TGI (SK-MEL-2 melanoma) of over 25 µM and a GI50 (OVCAR-4 ovarian) of over 25 µM. The TGI (OVCAR-4 ovarian) was over 25 µM, the GI50 (HS 578T breast) was 15.8 µM and the TGI (HS 578T breast) was over 25 µM. It also gave a GI50 (SNB-19 CNS) of 18.5 µM, a TGI (SNB-19 CNS) of over 25 µM and a GI50 (HCT-15 colon) of 10.3 µM. It also gave a TGI (HCT-15 colon) of over 25 µM, a GI50 (MCF7 breast) of 6.37 µM and a TGI (MCF7 breast) of over 25 µM. It also gave a GI50 (TK-10 renal) of 10.3 µM, a TGI (TK-10 renal) of over 25 µM and a GI50 (OVCAR-5 ovarian) of over 25 µM. For the same molecule, the TGI (OVCAR-5 ovarian) was over 25 µM, the GI50 (MDA-MB-231 breast) was 24.1 µM and the TGI (MDA-MB-231 breast) was over 25 µM. The GI50 (COLO 205 colon) was 13.5 µM, the TGI (COLO 205 colon) was over 25 µM and the GI50 (SR leukemia) was 13.3 µM. The TGI (SR leukemia) was over 25 µM, the GI50 (LOX IMVI melanoma) was 12.5 µM and the TGI (LOX IMVI melanoma) was over 25 µM. It also gave a GI50 (SK-OV-3 ovarian) of 13.1 µM, a TGI (SK-OV-3 ovarian) of over 25 µM and a GI50 (SF-295 CNS) of over 12.4 µM. It also gave a TGI (SF-295 CNS) of over 25 µM, a GI50 (HL-60(TB) leukemia) of over 25 µM and a TGI (HL-60(TB) leukemia) of over 25 µM. For the same molecule, the GI50 (UO-31 renal) was 4.08 µM, the TGI (UO-31 renal) was over 25 µM and the GI50 (DU-145 prostate) was 18.7 µM. For the same molecule, the TGI (DU-145 prostate) was over 25 µM, the GI50 (IGROV1 ovarian) was 6.35 µM and the TGI (IGROV1 ovarian) was over 21.8 µM. The GI50 (RPMI-8226 leukemia) was over 17.1 µM, the TGI (RPMI-8226 leukemia) was over 25 µM and the GI50 (SF-268 CNS) was 17.3 µM. For the same molecule, the TGI (SF-268 CNS) was over 25 µM, the GI50 (MOLT-4 leukemia) was over 25 µM and the TGI (MOLT-4 leukemia) was over 25 µM. For the same molecule, the GI50 (A549 NSCLC) was 13.4 µM, the TGI (A549 NSCLC) was over 25 µM and the GI50 (PC-3 prostate) was over 23 µM. For the same molecule, the TGI (PC-3 prostate) was over 25 µM, the GI50 (786-0 renal) was 16.2 µM and the TGI (786-0 renal) was over 25 µM. The GI50 (MDA-MB-435) was over 23 µM, the TGI (MDA-MB-435) was over 25 µM and the GI50 (K-562 leukemia) was over 23 µM. For the same molecule, the TGI (K-562 leukemia) was over 25 µM, the GI50 (NCI-H460 lung) was 8.43 µM and the TGI (NCI-H460 lung) was over 25 µM. For the same molecule, the GI50 (NCI-H522 lung) was over 25 µM, the TGI (NCI-H522 lung) was over 25 µM and the GI50 (NCI-H23 lung) was over 25 µM. For the same molecule, the TGI (NCI-H23 lung) was over 25 µM, the GI50 (HCT-116 colon) was 13.2 µM and the TGI (HCT-116 colon) was over 25 µM.
